{"source": "patent US20040192601A1", "about": "“Lipid binding molecules and methods of use” (priority 2002, published 2004)", "origin": "cited, not measured here", "tested_on": "PI3K", "conditions": "W7 used at 100 μM; stated as a property of the calmodulin inhibitor", "data": [{"molecule": "NCCCCCCNS(=O)(=O)c1cccc2c(Cl)cccc12", "note": "[W7]", "values": [{"measurement": "Inhibition of PI3K activity", "value": "does not inhibit PI3K activity"}]}]}
